{"source": "paper PMC4786259", "about": "(PLoS ONE, 2016)", "tested_on": "WT and dopamine transporter knockout (DAT-KO) mice", "experiment": "Prepulse inhibition in WT and DAT-KO mice", "settings": "2 mg/kg clozapine i.p."}
{"smiles": "CN1CCN(C2=Nc3cc(Cl)ccc3Nc3ccccc32)CC1", "note": "[clozapine]", "values": [{"measurement": "PPI in DAT-KO mice", "result": "restored"}, {"measurement": "PPI in WT mice", "result": "not affected"}]}
